# According to patent US20070286898A1, “Intracellular Drug Delivery Improving Liposome” (ASTELLAS PHARMA INC., priority 2004, published 2007):
# System: Ehrlich's ascites carcinoma cell
# Assay: Cell-killing effect upon Ehrlich's ascites carcinoma cell using WST
# Assay type: cell-based
# Settings: 1×10^6 cells, read-out: IC50 (doxorubicin concentration by which 50% of cell-killing effect is obtained)
# Description: The preparations prepared in Examples 1 and 2 and Comparative Examples 1, 2 and 3 were adjusted to various concentrations, and the resulting liquids were added to Ehrlich's ascites carcinoma cell (1×10^6 cells) to examine their cell-killing effects using WST.
# Based on the results of plotting a relationship between the doxorubicin concentration in each preparation and its cell-killing effect, the doxorubicin concentration by which 50% of cell-killing effect is obtained was calculated (Table 1). By this, it was shown that the liposome preparations of the present invention show significant pharmacological effect in comparison with Comparative Examples.
structure (smiles),measurement,value
"COc1cccc2c1C(=O)c1c(O)c3c(c(O)c1C2=O)C[C@@](O)(C(=O)CO)C[C@@H]3O[C@H]1C[C@H](N)[C@H](O)[C@H](C)O1 [Comparative Example 3, doxorubicin]",IC50,3.45 µM
